Laboratory results as given in article PMC6508677, “Identification of druggable small molecule antagonists of the Plasmodium falciparum hexose transporter PfHT and assessment of ligand access to the glucose permeation pathway via FLAG-mediated protein engineering” (PLoS ONE, 2019).
Several values for one entry are separate records, joined by “and”; a condition that tells them apart may be missing. Equal values may be shown once. Read-outs that look alike come from different tables or passages of the source.

Test system: P. falciparum strain 3D7
Experiment: P. falciparum growth inhibition assay (Picogreen DNA content, 3 days)
Type: cell-based, Plasmodium falciparum
Settings: for EC50: P. falciparum 3D7 intraerythrocytic forms, 3 days, mean, read-out: EC50 (IC50 in Fig 4A) for inhibition of parasite growth; for IC50: 3D7, 3D7, Expt 1-3, read-out: IC50 for inhibition of parasite growth, individual experiments
Experimental: P. falciparum strain 3D7 was obtained from the Malaria Research and Reference Reagent Resource Center (MR4, ATCC, Manassas, VA). Parasites were cultured in a 2% suspension of human erythrocytes and RPMI 1640 (Sigma) medium supplemented with 27 mM sodium bicarbonate, 11 mM glucose, 5 mM HEPES, 1 mM sodium pyruvate, 0.37 mM hypoxanthine, 0.01 mM thymidine, 10 μg/ml gentamicin, and 0.5% Albumax (Gibco) at 37°C, 5% O2/ 5% CO2 / 90% N2 atmosphere as previously described.
Asynchronous P. falciparum cultures were diluted to 1% parasitemia and were treated with compounds at concentrations ranging from 0.195 μM—100 μM. Growth inhibition assays were performed in 100 μl cultures in opaque 96-well plates. Parasite growth was quantified after 3 days by measuring DNA content using Picogreen (Life Technologies)[22]. Fluorescence was measured by a FLUOstar Omega microplate reader (BMG Labtech) at 485 nm excitation and 528 nm emission. IC50 values were calculated by least squares nonlinear regression analysis using GraphPad Prism 6.0 software.

[1] = Plasmodium falciparum, 3D7, 72 h

SMILES | EC50 | IC50 (Plasmodium falciparum) | EC50 [1] | Parasite kill curve raw reading (Picogreen fluorescence), duplicate wells of Expt 1-3 (concentration 0.195312 (μM)) | Parasite kill curve raw reading (Picogreen fluorescence), duplicate wells of Expt 1-3 (concentration 0.390625 (μM)) | Parasite kill curve raw reading (Picogreen fluorescence), duplicate wells of Expt 1-3 (concentration 0.78125 (μM)) | Parasite kill curve raw reading (Picogreen fluorescence), duplicate wells of Expt 1-3 (concentration 1.5625 (μM)) | Parasite kill curve raw reading (Picogreen fluorescence), duplicate wells of Expt 1-3 (concentration 3.125 (μM)) | Parasite kill curve raw reading (Picogreen fluorescence), duplicate wells of Expt 1-3 (concentration 6.25 (μM)) | Parasite kill curve raw reading (Picogreen fluorescence), duplicate wells of Expt 1-3 (concentration 25 (μM)) | Parasite kill curve raw reading (Picogreen fluorescence), duplicate wells of Expt 1-3 (concentration 50 (μM)) | Parasite kill curve raw reading (Picogreen fluorescence), duplicate wells of Expt 1-3 (concentration 12.5 (μM))
Cc1ccc(S(=O)(=O)CCNC(=O)c2c(-c3c(Cl)cccc3Cl)noc2C)cc1 [WU-1, 3-(2,6-dichlorophenyl)-5-methyl-N-[2-(4-methylbenzenesulfonyl)ethyl]-1,2-oxazole-4-carboxamide] | 5.49 µM | 4.66 µM | 5.5 ± 0.6 µM | 31647.2 and 35553.2 and 49650 and 55614 and 44370 and 49901 | 38759.2 and 38857.2 and 52621 and 61368 and 45376 and 55663 | 33807.2 and 31780.2 and 49005 and 55418 and 44284 and 47486 | 30912.2 and 34557.2 and 48254 and 53201 and 42714 and 48519 | 26767.2 and 25415.2 and 46950 and 47685 and 35273 and 35563 | 20627.2 and 20040.2 and 32177 and 39080 and 23717 and 27707 | 7109.17 and 9009.17 and 13213 and 12190 and 10238 and 11917 | 6656.17 and 8203.17 and 11766 and 11899 and 11265 and 11133 | –
COc1c(Br)cc([N+](=O)[O-])c(OC)c1C(=O)NC(=O)Nc1c(C)cccc1Cl [WU-2, 3-(3-bromo-2,6-dimethoxy-5-nitrobenzoyl)-1-(2-chloro-6-methylphenyl)urea] | – | 21.3 µM | 22.8 ± 0.8 µM | 56098 and 51137 and 60240 and 31267.2 and 43585.2 and 60791 | 62198 and 51117 and 53186 and 43543.2 and 40121.2 and 61300 | 60027 and 63524 and 61078 and 36660.2 and 37397.2 and 61445 | 62718 and 60757 and 53560 and 40753.2 and 35617.2 and 59505 | – | – | 31771 and 33221 and 31489 and 18075.2 and 22893.2 and 29768 | – | 44791 and 46211 and 39233 and 29745.2 and 34796.2 and 56088
